Measured values from patent publication US6083951A, “Aryl-substituted pyrimidine sulphonamide compounds as endothelin antagonists” (Zeneca Limited, priority 1994, dated 2000).

Experiments:
[1] = tested on: Human ETA or ETB receptors; experiment: Test A: inhibition of [125I]-Endothelin-1 binding to MEL cell membranes expressing recombinant receptor; details: [125I]-Endothelin-1 30 pM, receptor subtype (ETA or ETB) not stated
Description: The endothelin receptor antagonist activity of compounds of formula I may be assessed in vitro by their ability to inhibit binding of [^125 I]-Endothelin-1 to its receptors. Human ETA or ETB receptors (sub-types of the endothelin receptor) were expressed in Mouse Erythroleukemic Cells (MEL cells) by using standard molecular techniques (for example, as described by Sambrook J., Fritsch E. F. & Maniatis T. (1989) Molecular Cloning: A Laboratory Manual, 2nd Edition, Cold Spring Harbor Press, U.S.A.). cDNA sequences encoding the human ETA and ETB receptor (Hosoda K. et al (1991), FEBS Lett., 287, 23-26 and Sakamoto A. et al, (1991), Biochem. Biophys Res. Comm., 178, 656-663) are subcloned into pBluescript vector followed by insertion into the MEL cell expression vector pEV as described by Needham et al (1992), Nuc. Acids Res., 20, 997-1003. […]
[^125 I]-Endothelin-1 binding to MEL cell membranes was measured in incubation buffer containing 50 mM Tris HCl, 1 mM CaCl2, 0.05% polyoxyethylenesorbitan monolaurate, 0.1% Bovine Serum Albumin (BSA), 0.02% sodium azide pH 7.4 at 30° C. after 180 minutes incubation. […] Nonspecific binding was measured in the presence of 100 nM unlabelled Endothelin-1. […] The filter discs were punched out and counted in a gamma counter. Compounds are tested in triplicate over a range of concentrations and IC50 (or pIC50) values calculated.

[2] = tested on: guinea-pig isolated taenia coli; experiment: Test B: inhibition of the relaxant response to endothelin-1 in isolated tissue; format: cell-based; details: antagonism of endothelin-1 relaxation, pA2 from concentration ratio
Description: The endothelin receptor antagonist activity of compounds of formula I may be assessed in vitro in isolated tissues by their ability to inhibit the relaxant response to endothelin-1 in the guinea-pig isolated taenia coli. Guinea pigs of either sex and weight >250 g are killed by cervical dislocation and the caecum removed and placed in cold oxygenated Krebs solution. Strips of Taenia coli are dissected out and approximately 4 cm lengths set up for isotonic recording in a 20 ml organ bath containing oxygenated Krebs solution at 32° C. After a 90-120 minute equilibration period to allow the tissue to spontaneously develop an increased tone, a cumulative concentration-response curve (relaxation) is constructed to endothelin-1 (0.3-10 nM). The tissue is then washed for a period of at least 90 minutes before construction of a second concentration-response curve to endothelin-1 in the presence of the test compound. The test compound is added to the organ bath (at an initial concentration of 20 μM) at least 30 minutes before constructing the second concentration-response curve to endothelin-1. The endothelin-1 concentration ratio for each experiment is determined by comparing the most parallel portions of the control and drug treated concentration-response curves. From this a pA2 is calculated: pA2 =-log[molar drug concentration]+log[concentration ratio-1].

Compound: CN(C)c1cccc2c(S(=O)(=O)Nc3ccc(Cl)nn3)cccc12 [Example 1, 5-(dimethylamino)-N-(6-chloro-3-pyridazinyl)-1-naphthalenesulphonamide]
- pIC50 in test A [1]: 6.7
- pA2 in test B [2]: 6.8
